Measurements as given in US12655116B2, “Substituted isophthalic acid diamides” (Bayer Aktiengesellschaft, priority 2020, dated 2026).

Experiments:
[1] = system: ECHCG; assay: Pre-emergence herbicidal action against ECHCG; assay type: in vivo, Echinochloa crus-galli; conditions: 80 g/ha
How it was run: (§1)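 Visual rating at 3 weeks vs untreated pots; 0–100% scale, 100% = plants died. Treatment: aqueous WP/EC spray onto covering soil, 600–800 l/ha, 0.2% wetter, seeds in sandy loam.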

[2] = system: AMARE; assay: Pre-emergence herbicidal action against AMARE; assay type: in vivo, Amaranthus retroflexus
How it was run: as §1

[3] = system: POLCO; assay: Post-emergence herbicidal action against POLCO; assay type: in vivo, Polygonum convolvulus
Experimental: Seeds of monocotyledonous and dicotyledonous weed and crop plants are laid out in sandy loam soil in wood-fiber pots, covered with soil and cultivated in a greenhouse under good growth conditions. 2 to 3 weeks after sowing, the test plants are treated at the one-leaf stage. The compounds of the invention, formulated in the form of wettable powders (WP) or as emulsion concentrates (EC), are then sprayed onto the green parts of the plants in the form of an aqueous suspension or emulsion at a water application rate equivalent to 600 to 800 l/ha, with addition of 0.2% wetting agent. After the test plants have been left to stand in the greenhouse under optimal growth conditions for about 3 weeks, the action of the preparations is assessed visually in comparison to untreated controls (herbicidal action in percent (%): 100% activity=the plants have died, 0% activity=like control plants). […] The tables below illustrate, in an illustrative manner, the post-emergence herbicidal action of the compounds of the invention, the herbicidal activity being stated in percent.

[4] = system: MATIN; assay: Pre-emergence herbicidal action against MATIN; assay type: in vivo, Matricaria inodora
How it was run: as §1

[5] = system: VIOTR; assay: Post-emergence herbicidal action against VIOTR; assay type: in vivo, Viola tricolor; conditions: 20 g/ha
How it was run: (§2)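 Greenhouse pot plants in sandy loam were sprayed at the one-leaf stage, 2 to 3 weeks after sowing, with WP or EC formulations as aqueous suspension or emulsion (600 to 800 l/ha water, 0.2% wetting agent). About 3 weeks later, damage was scored visually against untreated controls as % action (100% = dead, 0% = like control).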

[6] = system: ALOMY; assay: Pre-emergence herbicidal action against ALOMY; assay type: in vivo, Alopecurus myosuroides; conditions: 80 g/ha, pre-emergence, scored visually after 3 weeks vs untreated controls (100% = plants have died, 0% = like control plants)
How it was run: as §1

[7] = system: ABUTH; assay: Post-emergence herbicidal action against ABUTH; assay type: in vivo, Abutilon theophrasti; conditions: visual assessment about 3 weeks after treatment vs untreated controls
How it was run: as §2

[8] = system: ALOMY; assay: Post-emergence herbicidal action against ALOMY; assay type: in vivo, Alopecurus myosuroides; conditions: dosage 20 g/ha, visual assessment about 3 weeks after treatment vs untreated controls
How it was run: as §2

[9] = system: DIGSA; assay: Post-emergence herbicidal action against DIGSA; assay type: in vivo, Digitaria sanguinalis; conditions: 20 g/ha
How it was run: as §2

[10] = system: AVEFA; assay: Pre-emergence herbicidal action against AVEFA; assay type: in vivo, Avena fatua; conditions: 80 g/ha, pre-emergence
How it was run: as §1

[11] = system: ECHCG; assay: Post-emergence herbicidal action against ECHCG; assay type: in vivo, Echinochloa crus-galli; conditions: dosage 20 g/ha
How it was run: as §2

[12] = system: DIGSA; assay: Pre-emergence herbicidal action against DIGSA; assay type: in vivo, Digitaria sanguinalis
How it was run: as §1

[13] = system: AMARE; assay: Post-emergence herbicidal action against AMARE; assay type: in vivo, Amaranthus retroflexus; conditions: 20 g/ha, visual assessment about 3 weeks after treatment, 100% = plants have died, 0% = like control plants
How it was run: as §2

[14] = system: PHBPU; assay: Post-emergence herbicidal action against PHBPU; assay type: in vivo, Pharbitis purpurea; conditions: Ipomoea purpurea, 504 h, dosage 20 g/ha
How it was run: as §2

[15] = system: VIOTR; assay: Pre-emergence herbicidal action against VIOTR; assay type: in vivo, Viola tricolor; conditions: Viola tricolor, 504 h, dosage 80 g/ha
How it was run: as §1

[16] = system: SETVI; assay: Pre-emergence herbicidal action against SETVI; assay type: in vivo, Setaria viridis; conditions: Setaria viridis, 504 h, dosage 80 g/ha
How it was run: as §1

[17] = system: ABUTH; assay: Pre-emergence herbicidal action against ABUTH; assay type: in vivo, Abutilon theophrasti; conditions: Abutilon theophrasti, 504 h
How it was run: as §1

[18] = system: SETVI; assay: Post-emergence herbicidal action against SETVI; assay type: in vivo, Setaria viridis; conditions: Setaria viridis, 504 h, dosage 20 g/ha
How it was run: as §2

[19] = system: MATIN; assay: Post-emergence herbicidal action against MATIN; assay type: in vivo, Matricaria inodora; conditions: Tripleurospermum inodorum, 504 h, dosage 20 g/ha
How it was run: as §2

[20] = system: VERPE; assay: Post-emergence herbicidal action against VERPE; assay type: in vivo, Veronica persica; conditions: Veronica persica, 504 h
How it was run: as §2

[21] = 80 g/ha, scored visually after 3 weeks vs untreated controls (100% = plants have died, 0% = like control plants)

For CCNC(=O)c1c(Br)ccc(C(=O)Nc2nnc(C)o2)c1Cl [Example 6-141], which “Pre-emergence action against ECHCG in %” value [1] is on record?
Its value is 90%.

What about the “Pre-emergence action against AMARE in %” value [2, 21] of the same molecule?
Its value is 100%.

And the “Post-emergence action against POLCO in %” value ([3]; dosage 20 g/ha)?
Its value is 80%.

And the “Pre-emergence action against MATIN in %” value ([4]; dosage 80 g/ha)?
Its value is 80%.

What about the “Post-emergence action against VIOTR in %” value [5] of the same molecule?
The value was 80%.

What about the “Pre-emergence action against ALOMY (herbicidal activity)” value [6] of the same molecule?
Its value is 90%.

And the “Post-emergence action against ABUTH in %” value ([7]; dosage 20 g/ha)?
The value was 80%.

What about the “Post-emergence action against ALOMY in %” value [8] of the same molecule?
Its value is 90%.

And the “Post-emergence action against DIGSA” value [9]?
The value was 80%.

And the “Pre-emergence action against AVEFA in %” value [10]?
Its value is 80%.

What about the “Post-emergence action against ECHCG in %” value [11] of the same molecule?
The value was 80%.

And the “Pre-emergence action against DIGSA in %” value ([12]; dosage 20 g/ha)?
The value was 90%.

And the “Pre-emergence action against DIGSA in %” value ([12]; dosage 80 g/ha)?
Its value is 100%.

And the “Post-emergence action at 20 g/ha against AMARE in %” value [13]?
Its value is 100%.

How did the pest or weed control at 80 g/ha ([1]; Echinochloa crus-galli, 504 h) turn out when CNC(=O)c1c(C(F)F)ccc(C(=O)Nc2nnnn2C)c1OC [Example 1-72] was run?
The pest or weed control at 80 g/ha was 80%.

And the pest or weed control at 20 g/ha [14]?
Its pest or weed control at 20 g/ha is 80%.

And the pest or weed control at 20 g/ha ([2]; Amaranthus retroflexus, 504 h, 20 g/ha, scored visually after 3 weeks vs untreated controls, 100% = plants have died, 0% = like control plants)?
Its pest or weed control at 20 g/ha is 100%.

And the pest or weed control at 80 g/ha ([2]; Amaranthus retroflexus, 504 h, 80 g/ha, scored visually after 3 weeks vs untreated controls, 100% = plants have died, 0% = like control plants)?
The pest or weed control at 80 g/ha was 100%.

And the pest or weed control at 5 g/ha ([3]; Fallopia convolvulus, 504 h, dosage 5 g/ha)?
Its pest or weed control at 5 g/ha is 100%.

And the pest or weed control at 20 g/ha ([3]; Fallopia convolvulus, 504 h, dosage 20 g/ha)?
Its pest or weed control at 20 g/ha is 100%.

What about the pest or weed control at 20 g/ha ([4]; Tripleurospermum inodorum, 504 h, dosage 20 g/ha) of the same molecule?
The pest or weed control at 20 g/ha was 80%.

What about the pest or weed control at 80 g/ha ([4]; Tripleurospermum inodorum, 504 h, dosage 80 g/ha) of the same molecule?
The pest or weed control at 80 g/ha was 100%.

And the pest or weed control at 20 g/ha ([5]; Viola tricolor, 504 h)?
The pest or weed control at 20 g/ha was 90%.

And the pest or weed control at 5 g/ha ([7]; Abutilon theophrasti, 504 h, dosage 5 g/ha)?
Its pest or weed control at 5 g/ha is 80%.

And the pest or weed control at 20 g/ha ([7]; Abutilon theophrasti, 504 h, dosage 20 g/ha)?
Its pest or weed control at 20 g/ha is 90%.

And the pest or weed control at 80 g/ha [15]?
The pest or weed control at 80 g/ha was 100%.

And the pest or weed control at 80 g/ha [16]?
The pest or weed control at 80 g/ha was 100%.

And the pest or weed control at 80 g/ha [17, 21]?
The pest or weed control at 80 g/ha was 100%.

And the pest or weed control at 20 g/ha ([17]; dosage 20 g/ha, scored visually after 3 weeks vs untreated controls, 100% = plants have died, 0% = like control plants, read-out: Pre-emergence action against ABUTH (herbicidal activity in percent))?
The pest or weed control at 20 g/ha was 100%.

What about the pest or weed control at 20 g/ha [18] of the same molecule?
Its pest or weed control at 20 g/ha is 80%.

And the pest or weed control at 20 g/ha [19]?
The pest or weed control at 20 g/ha was 80%.

And the pest or weed control at 20 g/ha ([11]; Echinochloa crus-galli, 504 h)?
Its pest or weed control at 20 g/ha is 80%.

What about the pest or weed control at 20 g/ha ([12]; Digitaria sanguinalis, 504 h, dosage 20 g/ha) of the same molecule?
The pest or weed control at 20 g/ha was 90%.

And the pest or weed control at 80 g/ha ([12]; Digitaria sanguinalis, 504 h, dosage 80 g/ha)?
The pest or weed control at 80 g/ha was 100%.

What about the pest or weed control at 5 g/ha ([20]; 5 g/ha) of the same molecule?
Its pest or weed control at 5 g/ha is 80%.

What about the pest or weed control at 20 g/ha ([20]; 20 g/ha) of the same molecule?
The pest or weed control at 20 g/ha was 90%.
